Experimental findings from the NIST ThermoML archive (doi:10.1016/j.fluid.2016.01.011) are described below.

± gives the expanded uncertainty stated by the source.

Series [1] in a line: Molar enthalpy of transition or fusion. Particulars: Crystal; DSC.
For series [2] the following is noted: Crystal; DTA.

For the molecule `CCCCC/C=C\C/C=C\CCCCCCCC(=O)O` [(Z,Z)-9,12-octadecadienoic acid], in series [1], the “Molar enthalpy of transition or fusion” value turned out to be 34.1 ± 0.9 kJ/mol. Further, in series [2], the Normal melting temperature is -4.91 ± 0.58 °C.

For the molecule `CCCCCCCCCCCCCCCCCC(=O)O` [octadecanoic acid], the “Molar enthalpy of transition or fusion” value in series [1] was found to be 64.2 ± 2.3 kJ/mol. Moreover, in series [2], the Normal melting temperature turned out to be 70.83 ± 0.61 °C.

On to `CCCCCCCCCCCCCC(=O)O` [tetradecanoic acid], for which the “Molar enthalpy of transition or fusion” value in series [1] is 44.9 ± 1.7 kJ/mol. The Normal melting temperature in series [2] amounted to 54.53 ± 0.84 °C.
